In the NIST ThermoML archive (doi:10.1016/j.jct.2019.03.022):
± gives the expanded uncertainty stated by the source.

Conditions: Liquid, Frequency=5 MHz, Pulse-echo method

Cc1ccc(C)cc1 [1,4-dimethylbenzene]
Conditions | speed of sound [m/s]
305.93 K, 3690 kPa | 1296.5 ± 0.79
305.97 K, 40270 kPa | 1464.5 ± 0.81
305.98 K, 5250 kPa | 1304.4 ± 0.79
305.98 K, 45030 kPa | 1483.5 ± 0.81
305.98 K, 50870 kPa | 1506 ± 0.82
305.99 K, 1000 kPa | 1281.8 ± 0.79
305.99 K, 35160 kPa | 1443.6 ± 0.81
306 K, 4900 kPa | 1302.5 ± 0.79
306 K, 13840 kPa | 1347.7 ± 0.79
306 K, 30490 kPa | 1423.8 ± 0.8
306.02 K, 2050 kPa | 1287.2 ± 0.79
306.03 K, 9400 kPa | 1325.6 ± 0.79
306.05 K, 6960 kPa | 1312.9 ± 0.79
306.06 K, 19900 kPa | 1376.2 ± 0.8
306.07 K, 2050 kPa | 1287.1 ± 0.79
306.07 K, 16500 kPa | 1360.1 ± 0.8
306.07 K, 24630 kPa | 1397.8 ± 0.8
306.1 K, 29650 kPa | 1419.7 ± 0.8
306.14 K, 26930 kPa | 1407.8 ± 0.8
306.18 K, 28370 kPa | 1413.9 ± 0.8
323.47 K, 41260 kPa | 1410.2 ± 0.79
323.47 K, 49810 kPa | 1445.3 ± 0.81
323.47 K, 59650 kPa | 1483.5 ± 0.81
323.48 K, 34540 kPa | 1381.1 ± 0.81
323.48 K, 54770 kPa | 1464.8 ± 0.8
323.48 K, 55430 kPa | 1467.4 ± 0.81
323.49 K, 46870 kPa | 1433.4 ± 0.8
323.51 K, 49380 kPa | 1443.5 ± 0.8
323.51 K, 65910 kPa | 1506.7 ± 0.82
323.52 K, 30290 kPa | 1361.8 ± 0.81
323.53 K, 11470 kPa | 1269.8 ± 0.78
323.54 K, 1060 kPa | 1211.5 ± 0.78
323.54 K, 6060 kPa | 1240.3 ± 0.78
323.54 K, 44230 kPa | 1422.4 ± 0.8
323.54 K, 45010 kPa | 1425.6 ± 0.83
323.55 K, 18570 kPa | 1306.1 ± 0.78
323.56 K, 210 kPa | 1206.4 ± 0.8
323.57 K, 490 kPa | 1208.1 ± 0.78
323.57 K, 2600 kPa | 1220.4 ± 0.78
323.57 K, 10070 kPa | 1262.1 ± 0.78
323.57 K, 20900 kPa | 1317.5 ± 0.78
323.57 K, 39580 kPa | 1402.7 ± 0.79
323.57 K, 44830 kPa | 1424.7 ± 0.8
323.58 K, 5070 kPa | 1234.5 ± 0.78
323.58 K, 6090 kPa | 1240.3 ± 0.78
323.58 K, 11110 kPa | 1267.7 ± 0.78
323.58 K, 34830 kPa | 1382 ± 0.81
323.59 K, 7490 kPa | 1248 ± 0.78
323.59 K, 17890 kPa | 1302.5 ± 0.77
323.59 K, 25130 kPa | 1337.7 ± 0.78
323.59 K, 30210 kPa | 1361.3 ± 0.81
323.6 K, 15130 kPa | 1288.6 ± 0.78
335.95 K, 55000 kPa | 1427.5 ± 0.79
335.95 K, 65380 kPa | 1467.9 ± 0.8
335.96 K, 61040 kPa | 1451.3 ± 0.8
335.97 K, 50590 kPa | 1409.6 ± 0.79
335.98 K, 1230 kPa | 1164 ± 0.78
335.98 K, 2630 kPa | 1172.6 ± 0.77
335.98 K, 5600 kPa | 1190.4 ± 0.77
335.98 K, 45230 kPa | 1387.1 ± 0.78
335.99 K, 280 kPa | 1158 ± 0.77
335.99 K, 570 kPa | 1159.8 ± 0.77
335.99 K, 10300 kPa | 1217.5 ± 0.77
335.99 K, 20370 kPa | 1271.4 ± 0.76
336 K, 10270 kPa | 1217.2 ± 0.77
336 K, 24830 kPa | 1293.8 ± 0.77
336 K, 30890 kPa | 1323 ± 0.75
336 K, 34840 kPa | 1341.2 ± 0.75
336.01 K, 14980 kPa | 1243.1 ± 0.77
336.01 K, 20750 kPa | 1273.3 ± 0.77
336.02 K, 40670 kPa | 1367.2 ± 0.78
336.03 K, 41380 kPa | 1370.3 ± 0.76
336.05 K, 41270 kPa | 1369.8 ± 0.76
336.06 K, 31080 kPa | 1323.6 ± 0.76
348.25 K, 40 kPa | 1108.8 ± 0.8
348.27 K, 2120 kPa | 1122.5 ± 0.8
348.28 K, 4090 kPa | 1135.2 ± 0.79
348.29 K, 2590 kPa | 1125.5 ± 0.8
348.3 K, 2110 kPa | 1122.3 ± 0.8
348.32 K, 1270 kPa | 1116.8 ± 0.8
348.32 K, 8600 kPa | 1162.9 ± 0.8
348.32 K, 8900 kPa | 1164.7 ± 0.8
348.35 K, 10880 kPa | 1176.3 ± 0.79
348.36 K, 15220 kPa | 1201.1 ± 0.79
348.36 K, 20050 kPa | 1227.6 ± 0.79
348.37 K, 14620 kPa | 1197.7 ± 0.79
348.37 K, 60580 kPa | 1413.4 ± 0.8
348.39 K, 59820 kPa | 1410.3 ± 0.81
348.39 K, 64180 kPa | 1427.6 ± 0.81
348.4 K, 64670 kPa | 1429.6 ± 0.81
348.41 K, 59890 kPa | 1410.6 ± 0.81
348.42 K, 45170 kPa | 1348.7 ± 0.79
348.42 K, 49930 kPa | 1369.4 ± 0.8
348.42 K, 54750 kPa | 1389.6 ± 0.8
348.43 K, 29340 kPa | 1275 ± 0.78
348.43 K, 33900 kPa | 1297.2 ± 0.79
348.43 K, 39830 kPa | 1324.8 ± 0.79
348.45 K, 24930 kPa | 1252.9 ± 0.78
355.89 K, 12280 kPa | 1158.2 ± 0.78
355.92 K, 15640 kPa | 1177.7 ± 0.78
355.94 K, 920 kPa | 1085.7 ± 0.8
355.94 K, 20950 kPa | 1207.3 ± 0.78
355.95 K, 490 kPa | 1082.6 ± 0.8
355.95 K, 2620 kPa | 1097 ± 0.8
355.95 K, 25050 kPa | 1229.2 ± 0.78
355.95 K, 31130 kPa | 1260.2 ± 0.78
355.96 K, 10930 kPa | 1149.9 ± 0.79
355.98 K, 270 kPa | 1081 ± 0.79
355.98 K, 5370 kPa | 1115.1 ± 0.79
355.98 K, 65160 kPa | 1410.3 ± 0.8
356 K, 59390 kPa | 1387.1 ± 0.79
356.02 K, 41360 kPa | 1308.9 ± 0.78
356.02 K, 45060 kPa | 1325.7 ± 0.78
356.04 K, 54960 kPa | 1368.5 ± 0.79
356.05 K, 34600 kPa | 1276.9 ± 0.78
356.08 K, 50520 kPa | 1349.5 ± 0.79
373.53 K, 2520 kPa | 1031.7 ± 0.84
373.53 K, 5450 kPa | 1052.5 ± 0.82
373.54 K, 2530 kPa | 1031.7 ± 0.84
373.55 K, 950 kPa | 1020.1 ± 0.87
373.57 K, 44340 kPa | 1271.8 ± 0.8
373.58 K, 570 kPa | 1017.1 ± 0.84
373.58 K, 49640 kPa | 1296.2 ± 0.8
373.59 K, 240 kPa | 1014.6 ± 0.83
373.6 K, 10260 kPa | 1084.6 ± 0.82
373.6 K, 19750 kPa | 1143.4 ± 0.82
373.6 K, 29800 kPa | 1199.1 ± 0.8
373.6 K, 29850 kPa | 1199.3 ± 0.8
373.6 K, 35000 kPa | 1226.1 ± 0.8
373.61 K, 14920 kPa | 1114.2 ± 0.81
373.61 K, 59070 kPa | 1337.5 ± 0.83
373.62 K, 20290 kPa | 1146.4 ± 0.82
373.62 K, 39790 kPa | 1249.8 ± 0.81
373.62 K, 40800 kPa | 1254.9 ± 0.79
373.62 K, 58970 kPa | 1337.1 ± 0.83
373.63 K, 24920 kPa | 1172.7 ± 0.8
373.63 K, 54980 kPa | 1319.8 ± 0.8
373.64 K, 64880 kPa | 1361.7 ± 0.8
398.19 K, 37260 kPa | 1168.3 ± 0.8
398.2 K, 220 kPa | 923.76 ± 0.91
398.2 K, 29920 kPa | 1127.9 ± 0.82
398.2 K, 37270 kPa | 1168.3 ± 0.8
398.2 K, 40070 kPa | 1182.9 ± 0.81
398.2 K, 54810 kPa | 1254.7 ± 0.81
398.2 K, 60130 kPa | 1278.8 ± 0.81
398.21 K, 500 kPa | 926.17 ± 0.93
398.21 K, 34890 kPa | 1155.4 ± 0.82
398.21 K, 44950 kPa | 1207.5 ± 0.81
398.21 K, 64730 kPa | 1299 ± 0.82
398.22 K, 1040 kPa | 930.76 ± 0.92
398.22 K, 20010 kPa | 1068.5 ± 0.9
398.22 K, 24890 kPa | 1098.6 ± 0.83
398.23 K, 50040 kPa | 1232.3 ± 0.81
398.24 K, 5190 kPa | 964.55 ± 0.89
398.24 K, 15110 kPa | 1036.5 ± 0.85
398.24 K, 31220 kPa | 1135.2 ± 0.82
398.25 K, 2490 kPa | 942.77 ± 0.91
398.25 K, 10300 kPa | 1002.9 ± 0.87
398.25 K, 19720 kPa | 1066.6 ± 0.82
398.25 K, 31220 kPa | 1135.2 ± 0.81
398.26 K, 12650 kPa | 1019.5 ± 0.85
422.57 K, 5690 kPa | 886.27 ± 0.96
422.65 K, 2630 kPa | 858.44 ± 1
422.7 K, 14830 kPa | 959.38 ± 0.9
422.72 K, 550 kPa | 838.3 ± 0.94
422.72 K, 50170 kPa | 1171.8 ± 0.83
422.73 K, 190 kPa | 834.7 ± 1
422.73 K, 28590 kPa | 1052.1 ± 0.86
422.73 K, 54780 kPa | 1194.6 ± 0.82
422.74 K, 1230 kPa | 844.88 ± 1
422.74 K, 9190 kPa | 915.48 ± 0.96
422.74 K, 44830 kPa | 1144.4 ± 0.83
422.75 K, 780 kPa | 840.37 ± 1
422.75 K, 10020 kPa | 922.14 ± 0.95
422.75 K, 19940 kPa | 995.75 ± 0.88
422.75 K, 24810 kPa | 1028.2 ± 0.87
422.75 K, 29890 kPa | 1060 ± 0.85
422.75 K, 64580 kPa | 1240.2 ± 0.83
422.76 K, 59900 kPa | 1218.7 ± 0.83
422.77 K, 34850 kPa | 1089.3 ± 0.84
422.77 K, 40720 kPa | 1122.3 ± 0.84
446.94 K, 5130 kPa | 800.91 ± 1.1
446.99 K, 10180 kPa | 848.37 ± 1.1
446.99 K, 14830 kPa | 887.97 ± 1
447 K, 19890 kPa | 927.32 ± 0.98
447.01 K, 7300 kPa | 821.88 ± 1.1
447.02 K, 1020 kPa | 756.94 ± 1.2
447.02 K, 24900 kPa | 963.22 ± 0.95
447.03 K, 22500 kPa | 946.32 ± 0.95
447.07 K, 300 kPa | 748.43 ± 1.2
447.07 K, 580 kPa | 751.73 ± 1.2
447.08 K, 49880 kPa | 1113.3 ± 0.88
447.08 K, 64750 kPa | 1187.3 ± 0.87
447.09 K, 30510 kPa | 1000.7 ± 0.92
447.11 K, 54450 kPa | 1137 ± 0.88
447.12 K, 40150 kPa | 1059.5 ± 0.9
447.13 K, 35270 kPa | 1030.4 ± 0.91
447.13 K, 45010 kPa | 1086.9 ± 0.89
447.13 K, 59760 kPa | 1163.3 ± 0.87
